In PubChem BioAssay (NCI):
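Step 1: Grow cells in 96-well plates. Step 2: Expose to compound for 48 hours at 5 concentrations. Step 3: Interpolate endpoints linearly; if unreached, use highest concentration. Abbreviation: GI50, concentration required for 50% inhibition of growth. At the TGI there is no net growth.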

Columns and labels:
Assay in all cases: inhibition of tumour cell growth, NCI panel, 48 h
M14 melanoma = test system: M14 melanoma
MDA-MB-231 breast = test system: MDA-MB-231 breast
MALME-3M melanoma = test system: MALME-3M melanoma
NCI/ADR-RES ovarian = test system: NCI/ADR-RES ovarian
HCC-2998 colon = test system: HCC-2998 colon
IGROV1 ovarian = test system: IGROV1 ovarian
SK-MEL-2 melanoma = test system: SK-MEL-2 melanoma
OVCAR-5 ovarian = test system: OVCAR-5 ovarian
DU-145 prostate = test system: DU-145 prostate
SNB-75 CNS = test system: SNB-75 CNS
786-0 renal = test system: 786-0 renal
MOLT-4 leukemia = test system: MOLT-4 leukemia
KM12 colon = test system: KM12 colon
HOP-92 NSCLC = test system: HOP-92 NSCLC
SF-295 CNS = test system: SF-295 CNS
UACC-257 melanoma = test system: UACC-257 melanoma
SK-OV-3 ovarian = test system: SK-OV-3 ovarian
HOP-62 NSCLC = test system: HOP-62 NSCLC
TK-10 renal = test system: TK-10 renal
HS 578T breast = test system: HS 578T breast
MCF7 breast = test system: MCF7 breast
COLO 205 colon = test system: COLO 205 colon
SF-539 CNS = test system: SF-539 CNS
HCT-116 colon = test system: HCT-116 colon
LOX IMVI melanoma = test system: LOX IMVI melanoma
UACC-62 melanoma = test system: UACC-62 melanoma
MDA-MB-435 = test system: MDA-MB-435
SK-MEL-28 melanoma = test system: SK-MEL-28 melanoma
SN12C renal = test system: SN12C renal
SK-MEL-5 melanoma = test system: SK-MEL-5 melanoma
A498 renal = test system: A498 renal
HCT-15 colon = test system: HCT-15 colon
U251 CNS = test system: U251 CNS
UO-31 renal = test system: UO-31 renal
PC-3 prostate = test system: PC-3 prostate
A549 NSCLC = test system: A549 NSCLC
CCRF-CEM leukemia = test system: CCRF-CEM leukemia
NCI-H460 lung = test system: NCI-H460 lung
NCI-H23 lung = test system: NCI-H23 lung
SW-620 colon = test system: SW-620 colon
CAKI-1 renal = test system: CAKI-1 renal
HL-60(TB) leukemia = test system: HL-60(TB) leukemia
RXF 393 renal = test system: RXF 393 renal
NCI-H226 lung = test system: NCI-H226 lung
OVCAR-4 ovarian = test system: OVCAR-4 ovarian
OVCAR-8 ovarian = test system: OVCAR-8 ovarian
OVCAR-3 ovarian = test system: OVCAR-3 ovarian
BT-549 breast = test system: BT-549 breast
ACHN renal = test system: ACHN renal
HT29 colon = test system: HT29 colon
NCI-H522 lung = test system: NCI-H522 lung
RPMI-8226 leukemia = test system: RPMI-8226 leukemia
T-47D breast = test system: T-47D breast
SR leukemia = test system: SR leukemia
SF-268 CNS = test system: SF-268 CNS
K-562 leukemia = test system: K-562 leukemia
SNB-19 CNS = test system: SNB-19 CNS

## Cc1c(-c2ccc(C3CCCCC3)cc2)nc2ccc(F)cc2c1C(=O)O
M14 melanoma
  GI50: 0.788 µM
  TGI: > 100 µM
MDA-MB-231 breast
  GI50: 8.9 µM
  TGI: > 100 µM
MALME-3M melanoma
  GI50: > 51.4 µM
  TGI: > 100 µM
NCI/ADR-RES ovarian
  GI50: 0.609 µM
  TGI: > 100 µM
HCC-2998 colon
  GI50: 10.1 µM
  TGI: > 100 µM
IGROV1 ovarian
  GI50: 1 µM
  TGI: > 100 µM
SK-MEL-2 melanoma
  GI50: > 45.9 µM
  TGI: > 100 µM
OVCAR-5 ovarian
  GI50: > 100 µM
  TGI: > 100 µM
DU-145 prostate
  GI50: 0.802 µM
  TGI: > 100 µM
SNB-75 CNS
  GI50: 12.2 µM
  TGI: > 100 µM
786-0 renal
  GI50: 0.235 µM
  TGI: > 100 µM
MOLT-4 leukemia
  GI50: 0.0679 µM
  TGI: > 100 µM
KM12 colon
  GI50: 0.402 µM
  TGI: > 100 µM
HOP-92 NSCLC
  GI50: 15 µM
  TGI: 97.5 µM
SF-295 CNS
  GI50: 0.0881 µM
  TGI: > 100 µM
UACC-257 melanoma
  GI50: 4.79 µM
  TGI: > 100 µM
SK-OV-3 ovarian
  GI50: > 100 µM
  TGI: > 100 µM
HOP-62 NSCLC
  TGI: > 100 µM
TK-10 renal
  GI50: > 76.2 µM
  TGI: > 100 µM
HS 578T breast
  GI50: 34.8 µM
  TGI: > 100 µM
MCF7 breast
  GI50: 0.168 µM
  TGI: > 100 µM
COLO 205 colon
  GI50: 0.185 µM
  TGI: > 100 µM
SF-539 CNS
  GI50: 0.0701 µM
  TGI: > 70 µM
HCT-116 colon
  GI50: 0.0508 µM
  TGI: > 100 µM
LOX IMVI melanoma
  GI50: 0.0512 µM
  TGI: > 100 µM
UACC-62 melanoma
  GI50: 0.205 µM
  TGI: > 100 µM
MDA-MB-435
  GI50: 0.322 µM
  TGI: > 100 µM
SK-MEL-28 melanoma
  GI50: 14.5 µM
  TGI: > 100 µM
SN12C renal
  GI50: 0.546 µM
  TGI: > 100 µM
SK-MEL-5 melanoma
  GI50: 0.0799 µM
  TGI: > 100 µM
A498 renal
  GI50: > 36.6 µM
  TGI: > 100 µM
HCT-15 colon
  GI50: 0.0196 µM
  TGI: > 100 µM
U251 CNS
  GI50: 0.0588 µM
  TGI: > 100 µM
UO-31 renal
  GI50: 0.721 µM
  TGI: > 100 µM
PC-3 prostate
  GI50: 0.0797 µM
  TGI: > 100 µM
A549 NSCLC
  GI50: 0.128 µM
  TGI: > 100 µM
CCRF-CEM leukemia
  GI50: 0.0858 µM
  TGI: > 100 µM
NCI-H460 lung
  GI50: 0.0461 µM
  TGI: > 100 µM
NCI-H23 lung
  GI50: 6.54 µM
  TGI: > 100 µM
SW-620 colon
  GI50: 0.228 µM
  TGI: > 100 µM
CAKI-1 renal
  GI50: 0.0815 µM
  TGI: > 100 µM
HL-60(TB) leukemia
  GI50: 0.335 µM
  TGI: > 100 µM
RXF 393 renal
  GI50: 10.7 µM
  TGI: > 100 µM
NCI-H226 lung
  GI50: 3.08 µM
  TGI: > 100 µM
OVCAR-4 ovarian
  GI50: 38 µM
  TGI: > 100 µM
OVCAR-8 ovarian
  GI50: 0.123 µM
  TGI: > 100 µM
OVCAR-3 ovarian
  GI50: 0.475 µM
  TGI: > 100 µM
BT-549 breast
  GI50: 9.89 µM
  TGI: > 100 µM
ACHN renal
  GI50: 0.33 µM
  TGI: > 100 µM
HT29 colon
  GI50: 0.311 µM
  TGI: > 100 µM
NCI-H522 lung
  GI50: 0.766 µM
  TGI: > 100 µM
RPMI-8226 leukemia
  GI50: 0.273 µM
  TGI: > 100 µM
T-47D breast
  GI50: 9.65 µM
  TGI: > 100 µM
SR leukemia
  GI50: 0.0629 µM
  TGI: > 100 µM
SF-268 CNS
  GI50: 0.405 µM
  TGI: > 100 µM
K-562 leukemia
  GI50: 0.0574 µM
  TGI: > 100 µM
SNB-19 CNS
  GI50: 0.2 µM
  TGI: > 100 µM
